Measured values from US12344610B2, “APOL1 inhibitors and methods of use” (Maze Therapeutics, Inc., priority 2022, dated 2025).

What was measured:
Assay type in all cases: cell-based
[1] = tested on: HEK293 cells overexpressing APOL1 G2; assay: APOL1 G2 HEK293 cell rescue assay (reversal of cell death caused by overexpression of APOL1); details: geometric mean of at least 2 assay runs, † = single assay run
Method in brief: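 EC50 is the half-maximal effective concentration for reversing cell death driven by APOL1 G2 overexpression in HEK293 cells. Reported as geometric mean of at least 2 runs on separate days, each run averaging duplicate wells per plate; some values from a single run.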

APOL1 G2 = target: T1, APOL1 G2 (Homo sapiens, UniProt O14791, DEL388-389); assay: APOL1-mediated calcium transport (calcium influx) assay, HEK T-REx/GCaMP6f/APOL1 G2 K6.3 cells, FLIPR TETRA; details: prevention of calcium influx; geometric mean of at least 2 assay runs; † = average of a technical replicate from a single assay run
T1 construct: expressed in transfected cells; host or cells: HEK293 T-REx clonal line stably expressing GCaMP6f (HEK T-REx/GCaMP6f/APOL1 G2 K6.3), doxycycline induced
T1 sequence (O14791 with tags, fused parts or gaps DEL388-389): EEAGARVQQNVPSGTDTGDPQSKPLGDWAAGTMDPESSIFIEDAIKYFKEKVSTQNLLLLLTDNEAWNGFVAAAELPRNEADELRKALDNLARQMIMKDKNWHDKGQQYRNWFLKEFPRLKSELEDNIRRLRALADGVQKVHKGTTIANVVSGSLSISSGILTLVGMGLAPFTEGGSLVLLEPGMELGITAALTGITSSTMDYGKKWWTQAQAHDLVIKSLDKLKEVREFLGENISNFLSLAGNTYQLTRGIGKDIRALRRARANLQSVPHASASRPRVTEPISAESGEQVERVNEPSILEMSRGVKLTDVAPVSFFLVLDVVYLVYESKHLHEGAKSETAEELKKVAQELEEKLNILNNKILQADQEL
Method in brief: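 A HEK293 T-REx clone stably expressing GCaMP6f had APOL1 G2 induced with doxycycline (20 ng/mL solution added) for 6 h. Cells were then washed into Ca2+-free Tyrode's buffer (pH 7.4) and preincubated with compounds (duplicate 8-point) for 10 min at room temperature. Ca2+ injection to 5 mM final produced FLIPR GCaMP fluorescence, giving AC50 for influx inhibition (geometric mean, ≥2 runs).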

[2] = tested on: HEK293 clonal cell line overexpressing APOL1 G1; assay: APOL1 G1 HEK293 cell rescue assay (Example B3); details: geometric mean of at least 2 runs, † = single run, ¥ = concentration at 50% rescue estimated (no sigmoidal curve)
Method in brief: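 HEK293 clonal line overexpressing APOL1 G1; EC50 is half-maximal reversal of APOL1-induced cell death. Values are the geometric mean of ≥2 runs on separate days, each run the average of duplicate wells. Where no sigmoidal curve could be fitted, the concentration giving 50% rescue was estimated.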

[3] = HEK293 clonal line overexpressing APOL1 G1
[4] = Homo sapiens, HEK293, HEK293 overexpressing APOL1 G2
[5] = Homo sapiens, HEK293, HEK293 clonal line overexpressing APOL1 G1

SMILES	EC50 ([1]; HEK293 overexpressing APOL1 G2) [nM]	AC50 (APOL1 G2) [nM]	EC50 [2, 3] [nM]	EC50 [1, 4] [nM]	EC50 [2, 5] [nM]
CC(COc1ccc(S(C)(=O)=O)cc1)N1CCC2(CC1)C(=O)N(C1CC(O)C1)c1ccc(Cl)cc12 (single isomer, unassigned) [Compound 208, 5-chloro-1′-[(2R) or (2S)-1-(4-methanesulfonylphenoxy)propan-2-yl]-1-[(cis) or (trans)-3-hydroxycyclobutyl]-1,2-dihydrospiro[indole-3,4′-piperidin]-2-one]	238	1550	554	–	–
CS(=O)(=O)c1ccc(OCCN2CCC3(CC2)C(=O)Nc2c(Cl)cc(C#N)cc23)cc1 [Compound 8, 7-chloro-1′-[2-(4-methanesulfonylphenoxy)ethyl]-2-oxo-1,2-dihydrospiro[indole-3,4′-piperidine]-5-carbonitrile]	–	833	–	598	1440
C[C@]1(O)C[C@@H](n2ncc3cc(OCCN4CCC5(CC4)C(=O)Nc4ccc(C#N)cc45)cnc32)C1 (single isomer, unassigned) [Compound 437, 2-oxo-1′-[2-({1-[(cis)-3-hydroxy-3-methylcyclobutyl]-1H-pyrazolo[3,4-b]pyridin-5-yl}oxy)ethyl]-1,2-dihydrospiro[indole-3,4′-piperidine]-5-carbonitrile]	–	612	–	112	186
[2H]C([2H])([2H])N1C(=O)C2(CCN(CCOc3cnc(C4(CO)CC4)nc3)CC2)c2cc(Cl)ccc21 [Compound 420, 5-chloro-1′-[2-({2-[1-(hydroxymethyl)cyclopropyl]pyrimidin-5-yl}oxy)ethyl]-1-(^2H3)methyl-1,2-dihydrospiro[indole-3,4′-piperidin]-2-one]	–	892	–	64.7	144
CC(C)(CO)c1ncc(OCCN2CCC3(CC2)C(=O)Nc2ccc(C#N)cc23)cn1 [Compound 432, 1′-(2-{[2-(1-hydroxy-2-methylpropan-2-yl)pyrimidin-5-yl]oxy}ethyl)-2-oxo-1,2-dihydrospiro[indole-3,4′-piperidine]-5-carbonitrile]	–	2560	–	161	288
CNC(=O)c1ccc(OCCN2CCC3(CC2)C(=O)Nc2ccc(Cl)cc23)cc1 [Compound 52, 4-(2-{5-chloro-2-oxo-1,2-dihydrospiro[indole-3,4′-piperidin]-1′-yl}ethoxy)-N-methylbenzamide]	–	615	–	214	1060
[2H]C([2H])([2H])N1C(=O)C2(CCN(CCOc3ccc(C4(S(C)(=O)=O)CCC4)cc3)CC2)c2cc(Cl)ccc21 [Compound 415, 5-chloro-1′-{2-[4-(1-methanesulfonylcyclobutyl)phenoxy]ethyl}-1-(^2H3)methyl-1,2-dihydrospiro[indole-3,4′-piperidin]-2-one]	–	319	–	20.3	69.2
O=C1Nc2ccc(Cl)cc2C12CCN(CCOc1cnc(C3(O)CCC3)nc1)CC2 [Compound 430, 5-chloro-1′-(2-{[2-(1-hydroxycyclobutyl)pyrimidin-5-yl]oxy}ethyl)-1,2-dihydrospiro[indole-3,4′-piperidin]-2-one]	–	518	–	72.9	123
CS(=O)(=O)c1ccc(OCCN2CCC3(CC2)C(=O)Nc2ccc(Cl)cc23)cc1C1COC1 [Compound 223, 5-chloro-1′-{2-[4-methanesulfonyl-3-(oxetan-3-yl)phenoxy]ethyl}-1,2-dihydrospiro[indole-3,4′-piperidin]-2-one]	–	311	–	97.8	326
[2H]C([2H])([2H])N1C(=O)C2(CCN(CCOc3ccc(S(C)(=O)=O)cc3)CC2)c2cc(Cl)ccc21 [Compound 418]	–	309	–	78.5	215
CC(c1ccc(OCCN2CCC3(CC2)C(=O)Nc2ccc(C#N)cc23)cc1)S(C)(=O)=O (stereo not drawn) [Compound 133, 1′-{2-[4-(1-methanesulfonylethyl)phenoxy]ethyl}-2-oxo-1,2-dihydrospiro[indole-3,4′-piperidine]-5-carbonitrile]	–	671	–	203	885
NC(=O)c1ncc(OCCN2CCC3(CC2)C(=O)Nc2ccc(Cl)cc23)cn1 [Compound 258, 5-(2-{5-chloro-2-oxo-1,2-dihydrospiro[indole-3,4′-piperidin]-1′-yl}ethoxy)pyrimidine-2-carboxamide]	–	1050	–	444	~1300
CS(=O)(=O)c1ccc(OCCN2CCC3(CC2)C(=O)Nc2ccc(Cl)cc23)cc1C(F)CF (stereo not drawn) [Compound 217, 5-chloro-1′-{2-[3-(1,2-difluoroethyl)-4-methanesulfonylphenoxy]ethyl}-1,2-dihydrospiro[indole-3,4′-piperidin]-2-one]	–	866	–	32.6	108
C[C@]1(O)C[C@@H](N2C(=O)NCc3cc(OCCN4CCC5(CC4)C(=O)Nc4ccc(Cl)cc45)cc(C(F)(F)F)c32)C1 [Compound 456, 5-chloro-1′-[2-({2-oxo-1-[(cis)-3-hydroxy-3-methylcyclobutyl]-8-(trifluoromethyl)-1,2,3,4-tetrahydroquinazolin-6-yl}oxy)ethyl]-1,2-dihydrospiro[indole-3,4′-piperidin]-2-one]	–	1010	–	28.2	98.2
C[C@]1(O)C[C@@H](n2cnc3cc(OCCN4CCC5(CC4)C(=O)Nc4ccc(C#N)cc45)cc(C(F)F)c32)C1 [Compound 446, 1′-(2-{[7-(difluoromethyl)-1-[(cis)-3-hydroxy-3-methylcyclobutyl]-1H-1,3-benzodiazol-5-yl]oxy}ethyl)-2-oxo-1,2-dihydrospiro[indole-3,4′-piperidine]-5-carbonitrile]	–	1180	–	33.2	82.5
CC(COc1ccc(C2(S(C)(=O)=O)COC2)cc1)N1CCC2(CC1)C(=O)Nc1ccc(C#N)cc12 (stereo not drawn) [Compound 262, 1′-{1-[4-(3-methanesulfonyloxetan-3-yl)phenoxy]propan-2-yl}-2-oxo-1,2-dihydrospiro[indole-3,4′-piperidine]-5-carbonitrile]	–	2390	–	299	1780
[2H]C([2H])([2H])N1C(=O)C2(CCN(CCOc3cnc4c(c3)CCC(=O)N4[C@H]3C[C@@H](O)C3)CC2)c2cc(Cl)ccc21 [Compound 423, 5-chloro-1-(^2H3)methyl-1′-[2-({7-oxo-8-[(cis)-3-hydroxycyclobutyl]-5,6,7,8-tetrahydro-1,8-naphthyridin-3-yl}oxy)ethyl]-1,2-dihydrospiro[indole-3,4′-piperidin]-2-one]	–	284	–	59.3	116
CC(COc1ccc(C2(S(C)(=O)=O)COC2)cc1)N1CCC2(CC1)C(=O)Nc1ccc(C#N)cc12 (single isomer, unassigned) [Compound 264, (R) or (S)-1′-{1-[4-(3-methanesulfonyloxetan-3-yl)phenoxy]propan-2-yl}-2-oxo-1,2-dihydrospiro[indole-3,4′-piperidine]-5-carbonitrile]	2250	1950	~10000	–	–
CN1C(=O)C2(CCN(CCOc3ccc(-c4cnn(C)c4)cc3)CC2)c2ccccc21 [Compound 31, 1-methyl-1′-{2-[4-(1-methyl-1H-pyrazol-4-yl)phenoxy]ethyl}-1,2-dihydrospiro[indole-3,4′-piperidin]-2-one]	–	370	–	810	1570
CS(=O)(=O)Nc1ccc(OCCN2CCC3(CC2)C(=O)N(CCO)c2ccc(Cl)cc23)cc1C(F)(F)F [Compound 186, N-(4-{2-[5-chloro-1-(2-hydroxyethyl)-2-oxo-1,2-dihydrospiro[indole-3,4′-piperidin]-1′-yl]ethoxy}-2-(trifluoromethyl)phenyl)methanesulfonamide]	–	524	–	35.9	98.8
[2H]C([2H])(Oc1cc(C(F)(F)F)c2c(c1)ncn2[C@H]1C[C@@](C)(O)C1)C([2H])([2H])N1CCC2(CC1)C(=O)Nc1ccc(Cl)cc12 [Compound 463, 5-chloro-1′-[2-({1-[(cis)-3-hydroxy-3-methylcyclobutyl]-7-(trifluoromethyl)-1H-1,3-benzodiazol-5-yl}oxy)(1,1,2,2-^2H4)ethyl]-1,2-dihydrospiro[indole-3,4′-piperidin]-2-one]	–	2840	–	5.84	13.2
